Assay results reported in EP4201411A1, “NOVEL USE OF VITAMIN B12” (DSM IP Assets B.V., priority 2021, dated 2023).

Key:
Type in all cases: cell-based, human
[1] = tested on: skin explants; assay: LDH cytotoxicity assay on UV-B irradiated skin explants (ex vivo); settings: for Cytotoxicity [OD 450 nm] Mean/conditions: LDH production, skin explants irradiated with 200 mJ/cm2 UVB
Protocol: (§1) To further define the benefits of vitamin B12 in the skin, we included analysis of the compound in response to a stressor that induces inflammasome-medicated inflammation. Stress model options include UV exposure, confirming the effects on more complex skin tissues (ex vivo model). Firstly, the cytotoxicity of the active ingredient was evaluated. Then, the capacity of the active ingredient was measured to regulate inflammasome activation. […] Using immunohistochemistry, the effect of the active ingredient on the level of ASC protein (inflammasome marker) was studied. Finally, the expression level of miRNA hsa-miR-22-3p was quantified from RT-qPCR.
(§2) Ex vivo culture model and treatment: Fresh skin explants were obtained from abdominal surgery of a person. The culture medium dedicated to skin explants was used and renewed every day during each treatment. The skin biopsies were cultured in different conditions and each condition was performed in triplicates and processed separately. The active ingredient treatment was applied before and after the UV-B stress, but not during the UV stress. An UV-B irradiation of […] for 2 minutes was applied identically onto each irradiated skin explant. Prior to the irradiation, the culture medium was removed and replace by PBS +/+ for the duration of the stress.
(§3) Samples: • 1.Control Explant (No treatment, no irradiation) (NT_NS) • 2. Explant + UVB (NT_UV) • 3. Explant + UVB + vitamin B12 (0.01%) • 4. Explant + UVB + vitamin B12 (0.001%) Total no. of samples = 4 x 3 = 12 samples
Cytotoxicity method: Lactate dehydrogenase assay kit (LDH) was purchased from Roche and used according to manufacturer's protocol.
Table 1: Effect of vitamin B12 on LDH production by skin explants at 2 concentrations (0,01% and 0,001%) and of the positive control Triton at 0.1% after irradiation with 200 mJ/cm2 UVB. The statistical analysis was performed using two-tailed unpaired T-test and was not significant (p<0.05) for the vitamin B12 treatment vs irradiated control (NT_UV).

[2] = tested on: miR-22-3p; assay: miR-22-3p quantification by RT-qPCR in UV-B irradiated skin explants (ex vivo); settings: for miR-22-3p QR mean: skin explants, UV-B 200 mJ/cm2, normalized using U6 RNA, NT_UV = 1.067; for expression level of miR-22-3p (in words): skin explants after UV-B stress, vs NT_UV
Protocol: as §1, §2, §3
The miRNAs were extracted and purified using miRCURY RNA Isolation Kit. The quality control and miRNA quantification were performed using Agilent RNA Small kit and Analysis Agilent 2100 bioanalyzer. For miR qPCR, the RNA was reverse transcribed with a miRCURY LNA RT kit (339340, Qiagen). The reverse transcription reactions were diluted, and a fraction of diluted cDNA was used for each quantitative PCR, which was performed with a miRCURY LNA SYBR Green PCR kit (339346, Qiagen) using the CFX-connect (Biorad). The results were normalized to U6 expression. The reference and expression level of miRNA were calculated using 2ΔΔCt method.
Table 2: Effect of vitamin B12 on miR expression in skin explants after UV-B stress. The explants were treated with vitamin B12 at two concentrations (0,01% and 0,001%) and irradiated with UV-B at 200 mJ/cm2. The miR expression was normalized using U6 RNA. Two-tailed unpaired t-test was used for statistical analysis (using values from 3 replicates) vs NT_UV (*p-value <0.05).

[3] = tested on: Interleukin-1β; assay: IL-1β competitive ELISA on culture supernatants of UV-B irradiated skin explants (ex vivo); settings: vitamin B12 0,01%
Protocol: as §1, §2, §3
The secretion of Interleukin-1β in response to activation of the stress-induced inflammatory signaling pathway was evaluated using a competitive ELISA assay. 24 hours after exposure to UV-B irradiation, culture supernatants of explants were recovered. The samples were then treated according to the manufacturer's instructions using the IL-1β (RAB0273, Sigma Aldrich). The Interleukin production by explants was measured at 450 nm using ENSIGHT.
IL-1β secretion results: UV-B increased the production of IL-1β compared to the untreated control. […]

[4] = tested on: ASC protein; assay: ASC immunostaining of sections of UV-B irradiated skin explants (ex vivo); settings: for ASC complex, % / ASC complex, mean_int (int/area) / ASC complex, Mean intensity / condition: skin explant sections, UVB 200mJ/cm2; for ASC complex, %: NTNS = 100.00, NTUV = 138.17; for ASC complex, mean_int (int/area) / ASC complex, Mean intensity / condition: n =38; for ASC complex, Mean intensity / condition: NTUV = 660.03, NTNS = 477.70
Protocol: as §1, §2, §3
To evaluate the onset of apoptotic signaling, the fluorescence intensity of ASC was measured. After UV exposure, the explants were replaced in a fresh culture medium. At the end of the treatments the explants were frozen and then cut into thin sections. Following this, immunohistochemistry was performed by adding primary monoclonal Antibody ASC/TMS1/PYCARD (clone B-3) (SantaCruz #sc-514414) and secondary antibody anti-mouse coupled to Cy5 (Jackson Laboratory). After Hoechst 33342 staining, the fluorescence intensity was measured using a Zeiss fluorescence microscope (Axio imager Z1).
Table 4: Quantification of ASC complex immunolabelled in skin explant sections with or without UV-B stress and after vitamin B12 treatment at 0,01% or 0,001% and irradiated or not with UVB at 200mJ/cm2. The statistical analysis was performed using two-tailed unpaired T-test vs NT_UV (+ p-value <0.05, ++ p-value<0.01, +++ p-value<0.001).

cyanocobalamin [vitamin B12]
Cytotoxicity [OD 450 nm] Mean/conditions ([1]; vitamin B12 0,01%): 0.131 OD 450 nm
Cytotoxicity [OD 450 nm] Mean/conditions ([1]; vitamin B12 0,001%): 0.163 OD 450 nm
cytotoxicity (in words) ([1]; vitamin B12 0,01% and 0,001%, skin explants after UVB, compared to biopsies treated with Triton 0.1%): did not exert cytotoxicity
miR-22-3p QR mean ([2]; vitamin B12 0,01%): 1.721
expression level of miR-22-3p (in words) ([2]; vitamin B12 0.01%): significantly increased
expression level of miR-22-3p (in words) ([2]; vitamin B12 0,001%): tends to increase miR-22-3p expression, but this activation is not statistically significant
miR-22-3p QR mean ([2]; vitamin B12 0,001%): 1.334
IL-1β secretion (in words) ([3]; skin explants after UV-B stress): seems to decrease
IL-1β secretion, Relative Intensity ([3]; skin explants after UV-B, NT_NS = 100, NT_UV = 157): 137
IL-1β secretion, Mean Intensity ([3]; skin explants, 24 hours after UV-B, NT_UV = 4.914, NT_NS = 3.122): 4.2644
ASC complex, % ([4]; vitamin B12 0,01%): 103.22%
ASC complex, mean_int (int/area) ([4]; vitamin B12 0,01%): 491.31 int/area
ASC complex, Mean intensity / condition ([4]; vitamin B12 0,01%): 493.07
ASC protein (in words) ([4]; vitamin B12 0.001 % and 0.01 % topically on UV-irradiated skin explants): significantly reduced the ASC protein in a dose-dependent manner
ASC complex activation (in words) ([4]; vitamin B12 0.001%, after UV-B treatment): significantly reduces the ASC complex activation
ASC complex activation (in words) ([4]; vitamin B12 0.01%, compared to the UV-B stressed sample): significantly reduce the ASC complex activation to the level of the none irradiated extract
ASC complex, % ([4]; vitamin B12 0,001%): 118.48%
ASC complex, mean_int (int/area) ([4]; vitamin B12 0,001%): 524.44 int/area
ASC complex, Mean intensity / condition ([4]; vitamin B12 0,001%): 565.99
